Activity calls are given as the source filed them.
Key:
[1] = biological target: DNA topoisomerase 2-alpha (Homo sapiens) (UniProt P11388); experiment: Inhibition of human topoisomerase 2alpha-mediated relaxation of supercoiled pBR322 plasmid DNA after 15 mins using ethidium bromide staining by agarose-gel electrophoresis
[2] = biological target: DNA topoisomerase 2-alpha (Homo sapiens) (UniProt P11388); experiment: Complete inhibition of human topoisomerase 2alpha-mediated relaxation of supercoiled pBR322 plasmid DNA at 100 uM after 15 mins using ethidium bromide staining by agarose-gel electrophoresis
[3] = biological target: DNA topoisomerase 2-alpha (Homo sapiens) (UniProt P11388); experiment: Complete inhibition of human topoisomerase 2alpha-mediated relaxation of supercoiled pBR322 plasmid DNA at 50 uM after 15 mins using ethidium bromide staining by agarose-gel electrophoresis
[4] = biological target: DNA topoisomerase 2-alpha (Homo sapiens) (UniProt P11388); experiment: Partial inhibition of human topoisomerase 2alpha-mediated relaxation of supercoiled pBR322 plasmid DNA at 25 uM after 15 mins using ethidium bromide staining by agarose-gel electrophoresis

Measured: inhibition

DNA topoisomerase 2-alpha (Homo sapiens), sequence (P11388 whole entry): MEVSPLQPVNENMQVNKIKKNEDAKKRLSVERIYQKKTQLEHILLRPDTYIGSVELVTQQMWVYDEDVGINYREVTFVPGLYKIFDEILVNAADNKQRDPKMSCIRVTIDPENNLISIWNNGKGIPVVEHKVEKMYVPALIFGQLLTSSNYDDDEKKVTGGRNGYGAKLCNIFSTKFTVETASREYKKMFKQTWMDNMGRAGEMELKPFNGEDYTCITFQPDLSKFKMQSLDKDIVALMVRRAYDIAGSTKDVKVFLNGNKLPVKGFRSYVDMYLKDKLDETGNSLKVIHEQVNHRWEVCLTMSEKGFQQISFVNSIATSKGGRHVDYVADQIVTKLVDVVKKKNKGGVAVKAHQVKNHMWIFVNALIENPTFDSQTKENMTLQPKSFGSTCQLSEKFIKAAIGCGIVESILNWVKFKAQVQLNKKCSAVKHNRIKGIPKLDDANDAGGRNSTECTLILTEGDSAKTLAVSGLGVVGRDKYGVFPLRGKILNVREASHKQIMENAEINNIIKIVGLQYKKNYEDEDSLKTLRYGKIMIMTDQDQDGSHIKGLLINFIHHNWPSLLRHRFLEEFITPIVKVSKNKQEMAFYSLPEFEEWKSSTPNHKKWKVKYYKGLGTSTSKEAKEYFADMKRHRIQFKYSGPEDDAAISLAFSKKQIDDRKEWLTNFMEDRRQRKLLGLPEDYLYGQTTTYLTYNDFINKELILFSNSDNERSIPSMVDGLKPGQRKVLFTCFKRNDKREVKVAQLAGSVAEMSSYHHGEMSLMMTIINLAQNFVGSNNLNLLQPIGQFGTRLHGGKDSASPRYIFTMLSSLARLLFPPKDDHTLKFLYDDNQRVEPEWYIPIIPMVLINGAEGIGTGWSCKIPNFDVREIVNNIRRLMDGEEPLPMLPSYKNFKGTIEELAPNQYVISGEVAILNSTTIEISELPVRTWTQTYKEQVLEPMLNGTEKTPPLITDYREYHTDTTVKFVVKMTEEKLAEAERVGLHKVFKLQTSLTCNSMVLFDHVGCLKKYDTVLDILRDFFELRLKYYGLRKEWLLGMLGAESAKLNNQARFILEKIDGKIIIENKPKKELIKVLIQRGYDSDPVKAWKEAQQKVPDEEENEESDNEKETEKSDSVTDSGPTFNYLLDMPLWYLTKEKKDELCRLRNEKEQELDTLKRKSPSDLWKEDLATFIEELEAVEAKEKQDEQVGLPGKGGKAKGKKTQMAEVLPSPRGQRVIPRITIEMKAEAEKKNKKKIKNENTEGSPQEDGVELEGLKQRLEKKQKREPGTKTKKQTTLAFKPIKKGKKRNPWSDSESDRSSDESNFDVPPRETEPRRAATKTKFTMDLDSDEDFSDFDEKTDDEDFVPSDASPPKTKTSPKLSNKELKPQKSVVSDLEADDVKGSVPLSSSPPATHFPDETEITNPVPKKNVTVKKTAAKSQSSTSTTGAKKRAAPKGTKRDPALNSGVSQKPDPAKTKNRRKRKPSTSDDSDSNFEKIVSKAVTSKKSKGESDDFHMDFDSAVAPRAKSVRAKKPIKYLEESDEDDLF

C[C@@H](C(=O)O)[C@@]1(C)CC[C@H]2[C@@](C)(CC[C@@]3(C)[C@@H]4CC(C)(C)CC[C@]4(C)CC[C@]23C)[C@@H]1CC(=O)O
active: [1] Dose-dependent effect | [2] | [3] | [4]

CC(=O)[C@@]1(C)CC[C@H]2[C@@](C)(CC[C@@]3(C)[C@@H]4CC(C)(C)CC[C@]4(C)CC[C@]23C)[C@@H]1CC(=O)O
active: [1] Dose-dependent effect | [2] | [3] | [4]
